This is an account of results in patent publication US10670600B2, “Saposin-A derived peptides and uses thereof” (CHILDREN'S MEDICAL CENTER CORPORATION, priority 2007, dated 2020).

For one assay, the system named is Psap in PC3-MycER cells. Nature of the assay: Psap levels in PC3-MycER cells, western blot. Type of assay: cell-based, human. As to conditions: induction of Myc function. On the procedure:
For Western blotting, cells were harvested by mechanical scraping into 4° C. PBS, cell pellets were obtained by removing PBS after centrifugation at 13,000 rpm in a Heraeus Biofuge Fresco (Thermo Electron, Asheville, N.C.) for 2 min. Cells were then lysed in 50 mM Tris-HCl (pH 7.4), 150 mM NaCl, 1% NP40, 1 mM sodium orthovanadate, 5 mM NaF, 20 mM β-glycerophosphate, and complete protease inhibitor (Roche, Indianapolis, Ind.) and protein concentrations were determined by the BioRad protein assay (BioRad, Hercules, Calif.). Fifty micrograms of protein were loaded per well onto a 4-12% pre-cast Bis-Tris gel (BioRad, Hercules, Calif.). The protein extracts were electrophoresed and transferred to an immobilon-P membrane (Millipore, Bedford, Mass.). The membranes were blocked in 5% nonfat milk and incubated in primary antibody to Tsp-1 (Ab-11, LabVision, Fremont, Calif.), c-Myc and phospho-Myc (Cell Signaling Technology, Beverly, Mass.), Prosaposin (Santa Cruz Biotechnology, Santa Cruz, Calif.), β-actin (AbCam, Cambridge, UK). The membranes were then washed in PBS+0.1% Tween-20 and incubated with either HRP-conjugated goat anti-mouse or anti-rabbit secondary antibody (Jackson Immunoresearch Laboratories, West Grove, Pa.) followed by another wash. […] Protein volume intensity was determined using a Bio-Rad Chemi-Doc XRS system (Bio-Rad, CA). […]

A further assay deals with p53 in WI-38 fibroblasts. Description: p53 expression in WI-38 fibroblasts, western blot. It counts as cell-based, human. A general note: Immunoblotting shows a protein as a band on a membrane.
Assay [1] relates to Tsp-1 expression in WI-38 lung fibroblasts. Description: Tsp-1 expression in WI-38 lung fibroblasts, western blot. It counts as cell-based, human. On the procedure: (§1) For the conditioned media assay, 1.5×10^6 tumor cells and fibroblasts cells were grown in the tumor cell media containing 0.1% FBS for 12 hours at which point the conditioned media from the tumor cells was centrifuged to remove any cells or cell debris and transferred to the fibroblasts subsequent to removal of the low serum fibroblast growth media. All assays were performed a minimum of five times and representative samples depicted. The fibroblasts and media were harvested after 12 to 16 hours after addition of the tumor cell conditioned media and lysed for the western blot analysis while the conditioned media was collected for ELISA analysis. For the co-culture assays, 1×10^6 fibroblasts were seeded in the bottom chamber of transwell tissue culture plates (Corning Inc., Corning, N.Y.) and 1×10^6 tumor cells were seeded on the membrane in the top chamber of the plates. The two cell types were co-cultured for 40 to 44 hours in tumor cell media containing 0.1% FBS before harvesting and lysing the fibroblasts for western blot analysis and collecting the media for ELISA analysis.
For Western blotting, cells were harvested by mechanical scraping into 4° C. PBS, cell pellets were obtained by removing PBS after centrifugation at 13,000 rpm in a Heraeus Biofuge Fresco (Thermo Electron, Asheville, N.C.) for 2 min. Cells were then lysed in 50 mM Tris-HCl (pH 7.4), 150 mM NaCl, 1% NP40, 1 mM sodium orthovanadate, 5 mM NaF, 20 mM β-glycerophosphate, and complete protease inhibitor (Roche, Indianapolis, Ind.) and protein concentrations were determined by the BioRad protein assay (BioRad, Hercules, Calif.). Fifty micrograms of protein were loaded per well onto a 4-12% pre-cast Bis-Tris gel (BioRad, Hercules, Calif.). The protein extracts were electrophoresed and transferred to an immobilon-P membrane (Millipore, Bedford, Mass.). The membranes were blocked in 5% nonfat milk and incubated in primary antibody to Tsp-1 (Ab-11, LabVision, Fremont, Calif.), c-Myc and phospho-Myc (Cell Signaling Technology, Beverly, Mass.), Prosaposin (Santa Cruz Biotechnology, Santa Cruz, Calif.), β-actin (AbCam, Cambridge, UK). The membranes were then washed in PBS+0.1% Tween-20 and incubated with either HRP-conjugated goat anti-mouse or anti-rabbit secondary antibody (Jackson Immunoresearch Laboratories, West Grove, Pa.) followed by another wash. The membrane was then developed with ECL reagent (Pierce, Rockford, Ill.) and exposed on film. Protein volume intensity was determined using a Bio-Rad Chemi-Doc XRS system (Bio-Rad, CA). […]
Seven 20-amino acid (20-mer) peptides derived from saposin A were tested for ability to stimulate Tsp-1 expression in fibroblasts. […] WI-38 lung fibroblasts were treated with these peptides overnight and the Tsp-1 expression was analyzed by Western blot analysis. […]

Assay [2] concerns MDM2 in WI-38 fibroblasts. Nature of the assay: MDM2 protein levels in WI-38 fibroblasts, western blot. Type of assay: cell-based, human.
The test system of assay [3] is Tsp-1 expression in prostate fibroblasts. Nature of the assay: Tsp-1 expression in prostate fibroblasts, western blot. Type of assay: cell-based, human. As to conditions: for stimulation of Tsp-1 by PC3 conditioned media in the presence of inhibitor: prostate fibroblasts treated with PC3 CM plus inhibitor. As for the experimental part: (§2) Methods of assaying the effects of mutant, fragment or variant Psap on Tsp-1 and p53 expression are described herein. Briefly, full-length, mutant, fragment and variant Psap are applied to the cell cultures prostate fibroblast. The conditioned media from PC3M-LN4 (LN4) and PC3 cells are used as controls, with PC3 as positive/stimulating control and LN4 as negative/inhibiting controls. After a period of included (˜16 h), the cells are harvested, rinsed, and lysed. The lysates are analyzed for the level of Tsp-1 and p53 expression by western blot analyses, with β-actin as the internal lysate protein loading control.
as §1
For Western blotting, cells were harvested by mechanical scraping into 4° C. PBS, cell pellets were obtained by removing PBS after centrifugation at 13,000 rpm in a Heraeus Biofuge Fresco (Thermo Electron, Asheville, N.C.) for 2 min. Cells were then lysed in 50 mM Tris-HCl (pH 7.4), 150 mM NaCl, 1% NP40, 1 mM sodium orthovanadate, 5 mM NaF, 20 mM β-glycerophosphate, and complete protease inhibitor (Roche, Indianapolis, Ind.) and protein concentrations were determined by the BioRad protein assay (BioRad, Hercules, Calif.). Fifty micrograms of protein were loaded per well onto a 4-12% pre-cast Bis-Tris gel (BioRad, Hercules, Calif.). The protein extracts were electrophoresed and transferred to an immobilon-P membrane (Millipore, Bedford, Mass.). […] Protein volume intensity was determined using a Bio-Rad Chemi-Doc XRS system (Bio-Rad, CA).

Assay [4] concerns p53 expression in prostate fibroblasts. Nature of the assay: p53 expression in prostate fibroblasts, western blot. It counts as cell-based, human. As for the experimental part: as §2, with “control. […]” for “control.”
For Western blotting, cells were harvested by mechanical scraping into 4° C. […] Cells were then lysed in 50 mM Tris-HCl (pH 7.4), 150 mM NaCl, 1% NP40, 1 mM sodium orthovanadate, 5 mM NaF, 20 mM β-glycerophosphate, and complete protease inhibitor (Roche, Indianapolis, Ind.) and protein concentrations were determined by the BioRad protein assay (BioRad, Hercules, Calif.). […] Protein volume intensity was determined using a Bio-Rad Chemi-Doc XRS system (Bio-Rad, CA).
Having determined that p53 protein levels were elevated in the stroma of PC3 tumors, the inventors determined if p53 stimulation could be responsible for the increased expression of Tsp-1. […]

The subject of another assay is thrombospondin-1 (Tsp-1). Description: Tsp-1 expression in lungs and livers of treated mice, western blot. It counts as in vivo. As for the experimental part:
The 20-mer […] (SEQ. ID. No. 29) was tested in vivo in mice for their ability to induce Tsp-1 expression. Four mice were treated with the 20-amino acid peptide (residues 31-50 of saposin A) at a dose of 30 mg/kg/day in combination with 200 μL of conditioned media (CM) from the metastatic prostate cancer cell line PC3M-LN4. […] Another four mice were treated with CM from PC3M-LN4 alone, and a control group of four mice with treated with vehicle (PBS) alone. […] Mice were treated for 9 days after which they were sacrificed and the lungs and livers were harvested and lysed. Tissue lysates were then run on a 4-12% gradient bis-tris polyacrylamide gel and transferred to a nitrocellulose membrane for western blotting with antibodies specific for thrombospondin-1 (Tsp-1) and β-actin.

The subject of a further assay is semaphorin 3F. Description: semaphorin 3F mRNA in WI-38 fibroblasts, real time RT-PCR. As to conditions: conditioned media of cells with or without prosaposin, relative to GAPDH. Type of assay: cell-based, human. As for the experimental part: FIG. 25. mRNA levels of semaphorin 3F, relative to GAPDH, in WI-38 fibroblasts that were untreated (NoTxPrSc) treated with conditioned media from PC3, PC3-shprosaposin (PC3-sh), PC3M-LN4 (LN4) and PC3M-LN4 cells ectopically expressing prosaposin (LN4Psap) as determined by real time RT-PCR.
Finally, it was determined that prosaposin stimulates the expression of semaphorin 3F, a transcriptional target of p53 and an inhibitor of metastasis and lymphangiogenesis, at the mRNA level (FIG. 25).
On the technique in general: Real-time PCR tracks product formation cycle by cycle.

[5] abbreviates: WI-38 fibroblasts, in the presence of the cyclic 13-mer.
The mark [6] stands for this setting: WI-38 fibroblasts treated with peptide.
The mark [7] stands for this setting: WI-38 lung fibroblasts treated with peptide.
Where [8] appears, read: mice treated for 9 days, versus control.
The mark [9] stands for this setting: mice, 30 mg/kg/day with 200 μL PC3M-LN4 CM, 9 days, compared to PC3M-LN4 CM.

Bridge positions count the residues as written; N and C are the ends. Ends that are not written are not given here.

For 4-hydroxy-tamoxifen [4-HT], in the assay on Psap in PC3-MycER cells, the “reduction in Psap levels” value stood at 4 fold.
On to `NC(=O)c1ccc(-c2nc(-c3ccc4c(c3)OCCO4)c(-c3ccccn3)[nH]2)cc1` [D4476, reference compound], for which, in the assay on p53 in WI-38 fibroblasts (setting [5]), the “p53 protein level (in words)” value was “reduction”. The “Tsp-1 protein level (in words)” value in assay [1] (setting [5]) was “reduction”. In addition, the “MDM2 protein level (in words)” value in assay [2] (setting [5]) is on record as “increase”.
For the molecule `COc1ccc2c(c1)c(C1=C(c3c[nH]c4ccccc34)C(=O)NC1=O)cn2CCCN(C)C` [GO 6983, reference compound], the “stimulation of Tsp-1 by PC3 conditioned media in the presence of inhibitor” value in assay [3] is listed as “abolished”. In assay [4] (prostate fibroblasts treated with PC3 CM plus inhibitor), the “stimulation of p53 by PC3 conditioned media in the presence of inhibitor” value is “abolished”.
For “CDWLPKPNMSASC (disulfide 1-13) [SEQ. ID. No. 37, cyclic 13 amino acid peptide, residues 35-47 of saposin A]”, the “p53 expression (in words)” value in the assay on p53 in WI-38 fibroblasts (setting [6]) is recorded as “sufficient to stimulate”. For the same molecule, the “Tsp-1 expression (in words)” value in assay [1] (setting [7]) was “sufficient to stimulate”. In addition, the “MDM2 protein level (in words)” value in assay [2] (setting [6]) was “down regulation”.
For the molecule “LEKTCDWLPKPNMSASCKEI [SEQ. ID. No. 29, 20-mer, residues 31-50 of saposin A]”, the “level of Tsp-1 stimulation relative to PC3 conditioned media” value in the assay with thrombospondin-1 (Tsp-1) (mice treated for 9 days, lung and liver) is given as “greater”. Besides, in the assay with thrombospondin-1 (Tsp-1) (setting [8]), the “Tsp-1 expression in the liver (in words)” value is “stimulated” and the “Tsp-1 expression in the lung (in words)” value is “stimulated”. In the assay with thrombospondin-1 (Tsp-1) (setting [9]), the “stimulation of Tsp-1 expression in the liver” value is listed as 4 fold and the “stimulation of Tsp-1 expression in the lung” value came out at 6 fold. In assay [1] (setting [7]), the “Tsp-1 expression (in words)” value is “able to stimulate”.

B1: SLPCDICKDVVTAAGDMLKDNATEEEILVYLEKTCDWLPKPNMSASCKEIVDSYLPVILDIIKGEMSRPGEVCSALNLCES (protein, listed as Homo sapiens)
chain: SLPCDICKDVVTAAGDMLKDNATEEEILVYLEKTCDWLPKPNMSASCKEIVDSYLPVILDIIKGEMSRPGEVCSALNLCES
notes: cleavage product of Psap, expressed as truncation mutant
Consider B1, for which the “stimulation of Tsp-1 (in words)” value in assay [3] (prostate fibroblasts, conditioned media of PC3M-LN4 cells transfected with truncation mutants) was “minimal domain that is functionally required for the stimulation of Tsp-1”. For the same molecule, in assay [1] (lung fibroblasts, CM from PC3M-LN4 cells transduced with truncated mutants of prosaposin), the “Tsp-1 expression (in words)” value is on record as “sufficient to stimulate”.

B2: prosaposin: saposin precursor protein, purified from PC3M-LN4 conditioned media with Talon metal affinity resin (protein, listed as Homo sapiens)
chain: MYALFLLASLLGAALAGPVLGLKCTRGSAVWCQNVKTASDCGAVKHCLQTVWNKPTVKSLPCDICKDVVTAAGDMLKDNATILVYLKTCDWLPKPNMSASCKIVDSYLPVILDIIKGMSRPGVCSALNLCSLQKHLALNHQKQLSNKIPLDMTVVAPFMANIPLLLYPQDGPRSKPQPKDNGDVCQDCIQMVTDIQTAVRTNSTFVQALVHVKCDRLGPGMADICKNYISQYSIAIQMMMHMQPKICALVGFCDVKMPMQTLVPAKVASKNVIPALLVPIKKHVPAKSDVYCVCFLVKVTKLIDNNKTKILDAFDKMCSKLPKSLSCQVVDTYGSSILSILLVSPLVCSMLHLCSGTRLPALTVHVTQPKDGGFCVCKKLVGYLDRNLKNSTKQILAALKGCSFLPDPYQKQCDQFVAYPVLIILVVMDPSFVCLKIGACPSAHKPLLGTKCIWGPSYWCQNTTAAQCNAVHCKRHVWN
With B2, the “stimulation of Tsp-1 expression” value in assay [3] (prostate fibroblasts, western blot, band volume density, purified Psap 5 μg) is recorded as around 5 fold. Besides, the “p53 expression (in words)” value in assay [4] (prostate fibroblasts, western blot) is given as “stimulated”. For the same molecule, the “expression of semaphorin 3F at the mRNA level” value in the assay with semaphorin 3F is “stimulates”.

B3: RAP: Receptor Associate Protein, a competitive inhibitor of LRP binding (protein)
chain: YSREKNQPKPSPKRESGEEFRMEKLNQLWEKAQRLHLPPVRLAELHADLKIQERDELAWKKLKLDGLDEDGEKEARLIRNLNVILAKYGLDGKKDARQVTSNSLSGTQEDGLDDPRLEKLWHKAKTSGKFSGEELDKLWREFLHHKEKVHEYNVLLETLSRTEEIHENVISPSDLSDIKGSVLHSRHTELKEKLRSINQGLDRLRRVSHQGYSTEAEFEEPRVIDLWDLAQSANLTDKELEAFREELKHFEAKIEKHNHYQKQLEIAHEKLRHAESVGDGERVSRSREKHALLEGRTKELGYTVKKHLQDLSGRISRARHNEL
B3: the “stimulation of Tsp-1 by PC3 conditioned media in the presence of inhibitor” value in assay [3] is listed as “no longer stimulated”.
